Like-named read-outs stand apart in the source and are kept apart here. No end group written: not given here.
Tests used:
onychomycosis [1] = test: Clinical study for treating onychomycosis (Example 2); format: in vivo, human; conditions: twice per day
Description: A peptide solution was tested for its treatment effect on onychomycosis in human subjects. The peptide was antimicrobial peptide hLF1-11 (GRRRRSVQWCA) [SEQ ID NO: 3] in water comprising 0.01% by volume acetic acid, based on the total volume of the peptide solution.
Forty two patients are treated with the peptide solution; 20 patients (4 male/16 female) were treated with a solution comprising a low concentration of 3 mg/L of the peptide (dose twice per day), 10 patients (3 male/7 female) were treated with the peptide solution with a high concentration of 30 mg/L of the peptide (dose twice per day) and 12 patients (8 male/4 female) with a combination of high and low concentration (4 weeks 30 mg/L following by 3 mg/L continuing treatment, dose twice per day).
Patients were categorized into groups based on their skin and nail disorders (visible inspection by independent pedicure); low to mild fungal nail problems (treatment group with 3 mg/L for patients in this group), mild to severe fungal nail problems (combination group 30 mg/L-3 mg/L) and highly infected onychomycosis (30 mg/L group).
Results: 90% of the patients observed an improvement in the appearance of the nail after 2 weeks, 92% observed improvement after 4-10 weeks of treatment. Complete recovery was visible for >98% of the patients after 24 weeks. No exclusions were made. Some patients with severe infections (diabetic/autoimmune related) in the high/low combination treatment group were treated longer with the peptide at high dose. All patients continued the treatment as long as it takes to recover completely from the fungal nail infection (in general, relating to the outgrowth of a complete new nail). Duration of the trial was 6-12 months (depending on the infection and the outgrowth of the nail).

onychomycosis [2] = format: in vivo, human; conditions: for no results observed, number of patients: 3-5 months treatment of the fungal nail
Description: The anti-fungal activity of the antimicrobial peptide hLF1-11 (GRRRRSVQWCA) [SEQ ID NO: 3] was tested in a clinical trial with human subjects who suffered from at least one nail apparently with onychomycosis.
In the clinical trial a total of 53 patients with different (severe) clinical signs of onychomycosis were included.

C. albicans (WT) = test: MIC90 growth inhibition; format: cell-based, Candida albicans; conditions: RPMI 1640 one-fourth strength
Description: (§1) The minimum inhibitory concentration (MIC) value is defined as the lowest sample concentration that inhibited growth. In the Examples, the MIC90 value is presented, which MIC90 values are determined according to established methods known to the person with the skills in the relevant art. Experiments; 1×10E5 CFU of various strains/ml were incubated for 24-48 h at 37° C. in 4× diluted medium of RPMI 1640 with the indicated concentrations of antimicrobial peptide hLF(1-11) [SEQ ID NO: 3]. As controls various strains cells were incubated for 24-48 h at 37° C. with no agent (antimicrobial peptide), and subsequently, growth of the microbial organism (e.g. yeast, bacterium) was monitored by using spectrophotometry with a spectrophotometer at 620 nm. […] ND=Not done. Representative single assay data are listed rather than a range, for clarity reasons and for ease of comparison of peptide efficacy. The MIC was calculated as the lowest antibiotic (antimicrobial peptide) concentration at which growth of the assessed yeast or bacterium (microbe) was inhibited (inhibitory concentration IC90).

C. albicans AA (LUMC) = test: MIC90 growth inhibition; format: cell-based, Candida albicans; conditions: RPMI 1640 one-fourth strength
Description: as §1

C. albicans ATCC 10231 = test: MIC90 growth inhibition; format: cell-based, Candida albicans; conditions: RPMI 1640 one-fourth strength
Description: as §1

C. albicans CBS-562 = test: MIC90 growth inhibition; format: cell-based, Candida albicans; conditions: RPMI 1640 one-fourth strength
Description: as §1

C. albicans CMC-1968 = test: MIC90 growth inhibition; format: cell-based, Candida albicans; conditions: RPMI 1640 one-fourth strength
Description: as §1

C. auris = test: MIC90 growth inhibition; format: cell-based, Candida auris; conditions: RPMI 1640 one-fourth strength
Description: as §1

C. haemulonii = test: MIC90 growth inhibition; format: cell-based, Candida haemulonii; conditions: RPMI 1640 one-fourth strength
Description: as §1

C. kefyr = test: MIC90 growth inhibition; format: cell-based, Candida kefyr; conditions: RPMI 1640 one-fourth strength
Description: as §1

C. lusitaniae CMC-1944 = test: MIC90 growth inhibition; format: cell-based, Candida lusitaniae; conditions: RPMI 1640 one-fourth strength
Description: as §1

C. metapsilosis = test: MIC90 growth inhibition; format: cell-based, Candida metapsilosis; conditions: RPMI 1640 one-fourth strength
Description: as §1

C. tropicalis (LUMC) = test: MIC90 growth inhibition; format: cell-based, Candida tropicalis; conditions: RPMI 1640 one-fourth strength
Description: as §1

C. tropicalis CBS-94 = test: MIC90 growth inhibition; format: cell-based, Candida tropicalis; conditions: RPMI 1640 one-fourth strength
Description: as §1

C. tropicalis CMC-2041 = test: MIC90 growth inhibition; format: cell-based, Candida tropicalis; conditions: RPMI 1640 one-fourth strength
Description: as §1

C. tropicalis spp. = test: MIC90 growth inhibition; format: cell-based, Candida tropicalis; conditions: RPMI 1640 one-fourth strength
Description: as §1

[3] = tested on: Crypt. neoform. ▴ SKN7 (UMC); test: MIC90 growth inhibition; format: cell-based, Cryptococcus neoformans; conditions: genetically modified type species, RPMI 1640 one-fourth strength
Description: as §1

Rhizoctonia solani = test: IC50 growth inhibition; format: cell-based
Sclerotinia sclerotiorum = test: IC50 growth inhibition; format: cell-based
Candida albicans spp = test: MIC90 growth inhibition, organisms related to onychomycosis; format: cell-based; conditions: RPMI 1640 one-fourth strength
Description: as §1

Epidermophyton spp = test: as above; format: cell-based; conditions: RPMI 1640 one-fourth strength
Description: as §1

Microsporum spp = test: as above; format: cell-based; conditions: RPMI 1640 one-fourth strength
Description: as §1

Trichophyton spp = test: as above; format: cell-based; conditions: Trichophyton spp (Table 2); RPMI 1640 one-fourth strength
Description: as §1

**Q.** How did the “patients who observed an improvement in the appearance of the nail” value (onychomycosis [1]; after 2 weeks, 3 mg/L, 30 mg/L or combination, 42 patients) turn out when “GRRRRSVQWCA [hLF1-11, Gly Arg Arg Arg Arg Ser Val Gln Trp Cys Ala]” was run?
**A.** The value was 90%.

**Q.** And the “patients who observed improvement” value (onychomycosis [1]; after 4-10 weeks of treatment)?
**A.** The value was 92%.

**Q.** And the “patients with complete recovery visible” value (onychomycosis [1]; after 24 weeks)?
**A.** Its value is greater than 98%.

**Q.** What about the “effect in patients D, E who had shown no effect at the high concentration” value (onychomycosis [2]; 100 mg/L, after 3 months of treatment) of the same sequence?
**A.** The value was “positive effect”.

**Q.** And the “time after which improvement was observed for the patients” value (onychomycosis [2]; High concentration solution (33.3 mg/L))?
**A.** The value was 3-6 months.

**Q.** And the “positive effect of the treatment observed, number of patients” value (onychomycosis [2]; Low concentrate (3.3 mg/L antimicrobial peptide) in aqueous acetic acid 0.01 volume %)?
**A.** The value was 18 patients.

**Q.** What about the “time after which improvement was observed for the patients” value (onychomycosis [2]; Low concentration solution (3.3 mg/L)) of the same sequence?
**A.** The value was 4-7 months.

**Q.** What about the “positive effect of the treatment observed, number of patients” value (onychomycosis [2]; high concentrate (33.3 mg/L antimicrobial peptide) in aqueous acetic acid 0.01 volume %) of the same sequence?
**A.** The value was 22 patients.

**Q.** And the “no results observed, number of patients” value (onychomycosis [2]; high concentration)?
**A.** The value was 2 patients.

**Q.** And the “adverse side effects (patients' remarks)” value (onychomycosis [2]; human, in vivo)?
**A.** Its value is “No adverse side effects”.

**Q.** What about the “no results observed, number of patients” value (onychomycosis [2]; low concentration) of the same sequence?
**A.** Its value is 3 patients.

**Q.** And the “positive effect of the nail treatment” value (onychomycosis [2]; panel of 53 patients, aqueous solution comprising the antimicrobial peptide)?
**A.** The value was 88.64%.

**Q.** What about the “patients with visual improvement of the nails” value (onychomycosis [2]; patients in the clinical trial) of the same sequence?
**A.** Its value is “more than 85%”.

**Q.** And the “positive result obtainable for all patients included in the clinical trial” value (onychomycosis [2]; when the concentration of the antimicrobial peptide is 100 mg/L)?
**A.** The value was 100%.

**Q.** What about the “Inhibitory concentration MIC (MIC90)” value (C. albicans (WT)) of the same sequence?
**A.** Its value is “MIC = 25 μg/ml”.

**Q.** What about the “Inhibitory concentration MIC (MIC90)” value (C. albicans AA (LUMC)) of the same sequence?
**A.** The value was “MIC = 25 μg/mL”.

**Q.** What about the “Inhibitory concentration MIC (MIC90)” value (C. albicans ATCC 10231) of the same sequence?
**A.** The value was “MIC = 25 μg/mL”.

**Q.** And the “Inhibitory concentration MIC (MIC90)” value (C. albicans CBS-562)?
**A.** The value was “MIC = 25 μg/mL”.

**Q.** What about the “Inhibitory concentration MIC (MIC90)” value (C. albicans CMC-1968) of the same sequence?
**A.** Its value is “MIC = 25 μg/mL”.

**Q.** And the “Inhibitory concentration MIC (MIC90)” value (C. auris)?
**A.** Its value is “MIC = 12.5-25 μg/ml”.

**Q.** What about the “Inhibitory concentration MIC (MIC90)” value (C. haemulonii) of the same sequence?
**A.** Its value is “MIC = 25 μg/mL”.

**Q.** And the “Inhibitory concentration MIC (MIC90)” value (C. kefyr)?
**A.** Its value is “MIC = 2.5-12.5 μg/ml”.

**Q.** And the “Inhibitory concentration MIC (MIC90)” value (C. lusitaniae CMC-1944)?
**A.** The value was “MIC = 50 μg/mL”.

**Q.** And the “Inhibitory concentration MIC (MIC90)” value (C. metapsilosis)?
**A.** Its value is “MIC = 25 μg/mL”.

**Q.** And the “Inhibitory concentration MIC (MIC90)” value (C. tropicalis (LUMC))?
**A.** The value was “MIC = 25 μg/mL”.

**Q.** What about the “Inhibitory concentration MIC (MIC90)” value (C. tropicalis (LUMC); second listing) of the same sequence?
**A.** Its value is “MIC = 25 μg/ml”.

**Q.** What about the “Inhibitory concentration MIC (MIC90)” value (C. tropicalis CBS-94; C. tropicalis CBS-94, second listing) of the same sequence?
**A.** The value was “MIC = 50 μg/ml”.

**Q.** What about the “Inhibitory concentration MIC (MIC90)” value (C. tropicalis CBS-94) of the same sequence?
**A.** The value was “MIC = 50 μg/mL”.

**Q.** What about the “Inhibitory concentration MIC (MIC90)” value (C. tropicalis CMC-2041; C. tropicalis CMC-2041, second listing) of the same sequence?
**A.** The value was “MIC = 50 μg/ml”.

**Q.** And the “Inhibitory concentration MIC (MIC90)” value (C. tropicalis CMC-2041)?
**A.** Its value is “MIC = 50 μg/mL”.

**Q.** And the “Inhibitory concentration MIC (MIC90)” value (C. tropicalis spp.)?
**A.** Its value is “MIC = 12.5-100 μg/mL”.

**Q.** What about the “Inhibitory concentration MIC (MIC90)” value [3] of the same sequence?
**A.** Its value is “MIC = 6.3 μg/ml”.

**Q.** And the “Inhibitory concentration IC50” value (Rhizoctonia solani)?
**A.** Its value is “IC50 = 121 μg/mL”.

**Q.** And the “Inhibitory concentration IC50” value (Sclerotinia sclerotiorum)?
**A.** Its value is “IC50 = 31 μg/mL”.

**Q.** What about the “Inhibitory concentration MIC (MIC90)” value (Candida albicans spp) of the same sequence?
**A.** Its value is “MIC = 25-50 μg/mL”.

**Q.** What about the “Inhibitory concentration MIC (MIC90)” value (Epidermophyton spp) of the same sequence?
**A.** Its value is “MIC = 25-50 μg/mL”.

**Q.** What about the “Inhibitory concentration MIC (MIC90)” value (Microsporum spp) of the same sequence?
**A.** Its value is “MIC = 25-50 μg/mL”.

**Q.** What about the “Inhibitory concentration MIC (MIC90)” value (Trichophyton spp) of the same sequence?
**A.** Its value is “MIC = 6.3-50 μg/ml”.
